Measurements: article PMC5911580, “YL143, a novel mutant selective irreversible EGFR inhibitor, overcomes EGFR^L858R, T790M‐mutant resistance in vitro and in vivo” (Cancer Medicine, 2018)
Like-named read-outs stand apart in the source and are kept apart here.

Columns and labels:
BaF3 = test: CCK-8 assay, BaF3 cells; assay type: cell-based; conditions: Mus musculus, AV±SD, read-out: anti-proliferative activity BaF3
Procedure: (§1) Cells were seeded into 96‐well plates at a density of 1500~3000/well in complete medium overnight. Then, cells were treated with various concentrations (0.01~1000 nmol/L) of YL143 for additional 3 days. Viable cell numbers were determined by Cell Counting Kit 8 (CCK8, CK04, Dojindo Laboratories, Japan). Each assay consisted of three replicate wells and repeated at least three times. […] Each IC50 value was expressed as mean ± SD.
(§2) The anti-proliferative activities of the compounds were evaluated using CCK-8 assay. The data were means from at least four independent experiments.

IGF1R = IGF1R (Homo sapiens, UniProt P08069); test: FRET-based Z'-Lyte kinase assay, IGF1R; assay type: biochemical; conditions: AV ± SD; 1.5 h incubation
Procedure: (§3) The kinase activity assay was performed and optimized according to the instructions of Z’‐LYTE™ kinase assay kits from the manufacturer (PV4879, Life, America). In our experiments, 10 concentration gradients from 0.01 nmol/L to 1.0 μmol/L were used for all the compounds.

A549 (EGFR^WT) cells = test: CCK-8 cell growth assay, A549; assay type: cell-based; conditions: Homo sapiens, read-out: antiproliferative IC50 A549
Procedure: as §1

[1] = system: HCC827 (EGFR^del 19) cells; test: CCK-8 cell growth assay, HCC827; assay type: cell-based; conditions: Homo sapiens, read-out: antiproliferative IC50 HCC827
Procedure: as §1

BaF3-EGFR ^L858R = test: CCK-8 assay, BaF3-EGFR L858R stable cells; assay type: cell-based; conditions: Ba/F3 EGFR-L858R, read-out: anti-proliferative activity BaF3-EGFR L858R
Procedure: as §1, §2

[2] = system: H1975 (EGFR^L858R/T790M) cells; test: CCK-8 cell growth assay, H1975; assay type: cell-based; conditions: Homo sapiens, read-out: antiproliferative IC50 H1975
Procedure: as §1

A431 (EGFR^WT) cells = test: CCK-8 cell growth assay, A431; assay type: cell-based; conditions: Homo sapiens, read-out: antiproliferative IC50 A431
Procedure: as §1

[3] = cited from earlier work; for median progression-free survival (PFS): patients with NSCLC with EGFR^L858R or EGFR^del19, improved from 4.6
IR = IR (Homo sapiens, UniProt P06213); test: FRET-based Z'-Lyte kinase assay, IR; assay type: biochemical; conditions: AV ± SD; 1.5 h incubation
Procedure: as §3

[4] = cited from earlier work

Sequence of IR (P06213 28-1382): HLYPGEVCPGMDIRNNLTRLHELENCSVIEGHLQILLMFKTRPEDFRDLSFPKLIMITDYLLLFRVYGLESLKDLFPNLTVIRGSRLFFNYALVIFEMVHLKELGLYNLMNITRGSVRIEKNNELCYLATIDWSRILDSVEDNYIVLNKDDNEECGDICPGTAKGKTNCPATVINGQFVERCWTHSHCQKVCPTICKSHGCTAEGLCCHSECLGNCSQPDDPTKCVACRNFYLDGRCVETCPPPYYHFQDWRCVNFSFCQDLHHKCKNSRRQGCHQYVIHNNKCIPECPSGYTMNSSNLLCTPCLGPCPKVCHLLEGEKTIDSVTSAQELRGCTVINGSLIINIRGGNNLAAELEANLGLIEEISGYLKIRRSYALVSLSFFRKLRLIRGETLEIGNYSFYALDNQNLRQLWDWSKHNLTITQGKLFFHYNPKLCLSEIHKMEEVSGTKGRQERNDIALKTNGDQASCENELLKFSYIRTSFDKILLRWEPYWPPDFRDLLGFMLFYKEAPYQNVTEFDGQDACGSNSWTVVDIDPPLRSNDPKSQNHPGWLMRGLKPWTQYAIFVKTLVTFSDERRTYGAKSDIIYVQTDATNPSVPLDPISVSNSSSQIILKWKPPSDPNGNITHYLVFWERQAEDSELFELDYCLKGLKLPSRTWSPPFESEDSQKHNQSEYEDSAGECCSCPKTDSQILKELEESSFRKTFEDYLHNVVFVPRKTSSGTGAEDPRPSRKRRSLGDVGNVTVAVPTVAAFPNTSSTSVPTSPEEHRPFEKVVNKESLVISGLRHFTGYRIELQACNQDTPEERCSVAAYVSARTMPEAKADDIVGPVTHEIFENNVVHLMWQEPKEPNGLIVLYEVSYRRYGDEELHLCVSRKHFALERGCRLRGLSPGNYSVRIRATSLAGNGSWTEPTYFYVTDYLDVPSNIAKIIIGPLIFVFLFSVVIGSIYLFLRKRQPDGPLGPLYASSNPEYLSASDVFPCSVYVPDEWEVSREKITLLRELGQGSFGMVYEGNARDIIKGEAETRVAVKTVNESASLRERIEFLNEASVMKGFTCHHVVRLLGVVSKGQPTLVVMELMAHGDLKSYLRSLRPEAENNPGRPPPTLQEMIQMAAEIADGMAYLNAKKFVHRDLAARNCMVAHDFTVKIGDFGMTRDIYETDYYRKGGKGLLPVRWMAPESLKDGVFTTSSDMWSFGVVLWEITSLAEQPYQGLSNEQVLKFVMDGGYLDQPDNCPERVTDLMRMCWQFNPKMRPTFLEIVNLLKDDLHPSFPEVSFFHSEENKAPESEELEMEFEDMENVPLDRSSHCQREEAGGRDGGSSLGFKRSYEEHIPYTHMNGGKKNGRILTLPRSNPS
Sequence of IGF1R (P08069 31-1367, species assumed): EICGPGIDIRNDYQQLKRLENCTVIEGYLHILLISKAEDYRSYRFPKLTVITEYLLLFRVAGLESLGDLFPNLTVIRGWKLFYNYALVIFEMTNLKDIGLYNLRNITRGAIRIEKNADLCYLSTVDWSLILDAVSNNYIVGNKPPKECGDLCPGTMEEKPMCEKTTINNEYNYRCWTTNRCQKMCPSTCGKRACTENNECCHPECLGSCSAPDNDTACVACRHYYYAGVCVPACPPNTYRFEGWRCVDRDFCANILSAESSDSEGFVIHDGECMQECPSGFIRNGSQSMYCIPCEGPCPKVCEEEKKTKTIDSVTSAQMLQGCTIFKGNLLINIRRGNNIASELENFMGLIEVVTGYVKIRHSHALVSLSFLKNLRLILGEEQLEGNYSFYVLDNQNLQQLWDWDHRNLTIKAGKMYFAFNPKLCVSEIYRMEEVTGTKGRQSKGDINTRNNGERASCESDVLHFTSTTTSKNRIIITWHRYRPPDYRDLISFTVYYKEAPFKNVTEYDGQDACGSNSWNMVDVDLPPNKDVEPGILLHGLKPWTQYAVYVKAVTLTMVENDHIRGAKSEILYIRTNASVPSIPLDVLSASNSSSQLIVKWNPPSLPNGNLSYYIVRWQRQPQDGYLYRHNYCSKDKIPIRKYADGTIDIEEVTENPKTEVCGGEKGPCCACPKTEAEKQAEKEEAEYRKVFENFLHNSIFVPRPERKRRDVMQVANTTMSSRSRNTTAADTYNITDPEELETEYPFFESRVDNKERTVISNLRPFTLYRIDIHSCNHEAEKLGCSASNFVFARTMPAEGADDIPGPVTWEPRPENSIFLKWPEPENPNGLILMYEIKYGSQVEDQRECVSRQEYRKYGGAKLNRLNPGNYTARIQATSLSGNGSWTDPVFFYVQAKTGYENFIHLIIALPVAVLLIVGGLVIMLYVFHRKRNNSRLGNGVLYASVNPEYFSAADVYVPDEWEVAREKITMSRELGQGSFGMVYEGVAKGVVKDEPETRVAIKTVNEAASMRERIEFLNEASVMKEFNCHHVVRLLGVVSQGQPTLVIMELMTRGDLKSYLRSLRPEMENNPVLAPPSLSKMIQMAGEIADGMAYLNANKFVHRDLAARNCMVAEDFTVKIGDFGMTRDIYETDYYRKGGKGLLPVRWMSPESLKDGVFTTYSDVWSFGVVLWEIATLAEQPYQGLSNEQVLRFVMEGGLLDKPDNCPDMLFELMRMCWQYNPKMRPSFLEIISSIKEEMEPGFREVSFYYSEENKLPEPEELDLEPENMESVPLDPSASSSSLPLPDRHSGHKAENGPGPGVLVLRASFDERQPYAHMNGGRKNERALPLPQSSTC

Q: For C=CC(=O)Nc1cc(Nc2nccc(-c3cn(C)c4ccccc34)n2)c(OC)cc1N(C)CCN(C)C [AZD9291, Osimertinib], which IC50 (BaF3) is on record?
A: 6170 ± 2980 nM

Q: And the IC50 (IGF1R)?
A: 277 nM

Q: What about the IC50 (A549 (EGFR^WT) cells; A549, 72 h) of the same compound?
A: > 1000 nM

Q: What about the IC50 ([1]; HCC827, 72 h) of the same compound?
A: 3.9 ± 3.5 nM

Q: What about the IC50 (BaF3-EGFR ^L858R) of the same compound?
A: 24 ± 25 nM

Q: What about the IC50 ([2]; NCI-H1975, 72 h) of the same compound?
A: 40.3 ± 16.6 nM

Q: And the “PFS (progression-free survival)” value ([3]; improved from 10.2)?
A: 18.9 months

Q: What about the IC50 (IR) of the same compound?
A: 235 nM

Q: What does the source list for C=CC(=O)Nc1cccc(Nc2nc(Nc3ccc(N4CCN(C(C)=O)CC4)cc3OC)ncc2C(F)(F)F)c1 [CO1686, Rociletinib]?
A: IC50 (BaF3): 2340 ± 1660 nM; IC50 (IGF1R): 47.5 ± 8.4 nM; IC50 (A549 (EGFR^WT) cells; A549, CCK-8, 72 h): > 1000 nM; IC50 ([1]; HCC827, CCK-8, 72 h, AV ± SD): 67.2 ± 19.5 nM; IC50 (BaF3-EGFR ^L858R; CCK-8, AV±SD): 69 ± 48 nM; IC50 ([2]; NCI-H1975, CCK-8, 72 h, AV ± SD): 41.8 ± 25.1 nM; IC50 (A431 (EGFR^WT) cells; A-431, CCK-8, 72 h): > 1000 nM; IC50 (IR): 12.8 ± 0.8 nM; hyperglycemia ([4]; clinical investigation): about 40 % patients; hyperglycemia ([4]; patients, clinical study): 47%

Q: For COc1cc2ncnc(Nc3ccc(F)c(Cl)c3)c2cc1OCCCN1CCOCC1 [Gefitinib], which “median progression-free survival (PFS)” value [3] is on record?
A: 13.1 months

Q: Which “median progression-free survival (PFS)” value [3] does the source give for C#Cc1cccc(Nc2ncnc3cc(OCCOC)c(OCCOC)cc23)c1 [erlotinib] here?
A: 13.1 months
